Test results published in ChEMBL document CHEMBL5724558, “Image-based profiling of drug vulnerabilities in CRC organoids” (2024).
“And” between values parts separate entries of the source, which are not always exact repeats. Equal values may be shown once.

Legend:
Format in all cases: functional, Homo sapiens
Set-up in all cases: dose or concentration left out as unconfirmed
Colon cancer organoid [1] = assay: Image-based profiling of donated chemical probes and chemogenomic kinase set in O06 CRC organoid. Image analysis is performed on the sum area metric, and the data were normalized to the DMSO control. After imaging the organoid viability is measured using the OneGloEX Luciferase Assay System. The normalized viability data and sum area are reported.
Colon cancer organoid [2] = assay: Image-based profiling of donated chemical probes and chemogenomic kinase set in O21 CRC organoid. Image analysis is performed on the sum area metric, and the data were normalized to the DMSO control. After imaging the organoid viability is measured using the OneGloEX Luciferase Assay System. The normalized viability data and sum area are reported.
Colon cancer organoid [3] = assay: Image-based profiling of donated chemical probes and chemogenomic kinase set in O09 CRC organoid. Image analysis is performed on the sum area metric, and the data were normalized to the DMSO control. After imaging the organoid viability is measured using the OneGloEX Luciferase Assay System. The normalized viability data and sum area are reported.

Row | Compound | Cell Viability (Colon cancer organoid [1]; Replication number 1) | Cell Viability (Colon cancer organoid [1]; Replication number 2) | Cell Viability (Colon cancer organoid [2]; Replication number 1) | Cell Viability (Colon cancer organoid [2]; Replication number 2) | Cell Viability (Colon cancer organoid [3]; Replication number 1) | Cell Viability (Colon cancer organoid [3]; Replication number 2)
1 | N#CC1(c2ccccn2)CCN(Cc2cc(C(=O)N3CCCC3)c(=O)n3ccccc23)CC1 [MSD-M1PAM-NC] | 114.688% and 98.8664% | 108.691% and 97.5493% | 100.616% and 90.5784% | 99.0735% and 86.6757% | 69.2847% and 91.5343% | 101.66% and 96.3521%
2 | CCCS(=O)(=O)c1nc(NC2CC2)cc(-c2ccc3c(ccn3C3CC(C)(C)NC(C)(C)C3)c2)n1 | 33.8005% and 71.7584% | 41.5782% and 52.8147% | 108.157% and 124.037% | 90.7114% and 110.084% | 90.8161% and 100.386% | 72.9195% and 100.634%
3 | O=C(NNS(=O)(=O)c1ccccc1F)c1cc(F)cc(-c2ccccn2)c1 [WM-1119] | 59.5797% and 94.7368% | 61.7919% and 84.5747% | 82.8466% and 99.3088% | 81.4128% and 90.2447% | 133.421% and 96.9739% | 39.4001% and 91.3957%
4 | Nc1nc(NCc2ccccc2)nc(-c2ccccc2CO)n1 [Ogerin] | 105.073% and 119.514% | 91.1794% and 124.7% | 116.019% and 92.2153% | 95.1453% and 93.8137% | 84.1314% and 95.0982% | 82.0321% and 100.912%
5 | CCC(=O)Nc1cccc(Oc2nc(Nc3ccc(N4CCN(C)CC4)cc3OC)ncc2Cl)c1 | 127.075% and 113.507% | 91.2646% and 89.6658% | 76.6045% and 88.0836% | 80.6193% and 93.271% | 45.1468% and 48.3715% | 57.9255% and 59.3892%
6 | CCc1cc2cc(NS(=O)(=O)c3ccc(C#N)cc3)ccc2n(CC)c1=O | 145.787% and 148.591% | 141.244% and 141.715% | 101.899% and 123.449% | 90.9641% and 104.714% | 136.869% and 118.47% | 168.563% and 119.449%
7 | O=C(O)CNC(=O)c1c(O)c2ccccc2n(Cc2ccccc2)c1=O | 94.9232% and 53.396% | 101.3% and 76.2347% | 116.47% and 93.4683% | 109.318% and 89.1408% | 105.314% and 91.1128% | 142.9% and 106.905%
8 | CCNC(=O)c1cc2c(N3CCOC[C@@H]3C)ccnc2n1C | 97.9107% and 98.1265% | 90.7853% and 98.7859% | 124.621% and 105.951% | 105.072% and 92.3469% | 131.24% and 98.4338% | 151.747% and 108.945%
9 | CC(C)S(=O)(=O)c1ccc2nccc(Nc3ccc4scnc4c3)c2c1 | 90.1117% and 127.973% | 127.825% and 117.429% | 106.102% and 111.498% | 112.549% and 132.422% | 127.216% and 102.228% | 64.4509% and 80.9853%
10 | COc1cc(-c2cn([C@H]3CCc4ccccc4N(CC(F)(F)F)C3=O)nn2)ccc1-n1ccc(C)n1 | 93.8708% and 97.1897% | 92.3722% and 127.214% | 95.5395% and 92.5614% | 105.607% and 89.2857% | 31.4153% and 64.0297% | 67.1931% and 101.059%
11 | C[C@@H]1CCNC(=O)c2cc3ccc(C(=O)Nc4nc5ccccc5n4CCCN(C)C)cc3n21 | 118.285% and 99.4853% | 110.228% and 88.2262% | 69.4409% and 79.1638% | 71.3371% and 86.362% | 82.052% and 59.5917% | 80.614% and 53.9902%
12 | CCNC(=O)c1cc2c(N3CCOCC3C)ccnc2[nH]1 (configuration not stated) | 98.3654% and 112.881% | 119.727% and 97.8383% | 130.503% and 111.772% | 91.1701% and 91.3265% | 68.1497% and 105.84% | 64.0482% and 77.4005%
13 | COc1cc(Nc2nc(C)cc(-c3cnn4nc(OC)ccc34)n2)cc(C(F)(F)F)c1 | 101.755% and 109.64% | 94.2101% and 91.9205% | 100.392% and 88.9748% | 126.257% and 100.876% | 104.965% and 91.5636% | 103.466% and 113.093%
14 | CC#CC(=O)N1CCC[C@H]1c1nc(-c2ccc(C(=O)Nc3ccccn3)cc2)c2c(N)nccn12 [ACALABRUTINIB] | 108.483% and 104.159% | 68.1537% and 91.7224% | 90.1303% and 116.516% | 93.0581% and 134.149% | 72.6716% and 83.0294% | 131.144% and 94.2129%
15 | CC(C)C(=O)Nc1n[nH]c2cc(-c3cccc(NS(=O)(=O)C4CC4)c3)ccc12 | 98.7656% and 120.438% | 86.9624% and 76.1389% | 108.143% and 100.309% | 99.3973% and 100.309% | 171.396% and 120.765% | 122.795% and 96.2655%
16 | Cc1cc(CN)cc(C)c1-c1ncn(C)c1-c1ccnc2cc(F)ccc12.Cl | 218.867% and 141.584% | 205.957% and 111.843% | 125.215% and 107.577% | 113.008% and 89.6778% | 165.285% and 103.632% | 176.587% and 123.725%
17 | COc1ccccc1C(=O)Nc1cc2c(cc1N1CCCC1)n(C)c(=O)n2C | 152.076% and 120.081% | 178.087% and 127.616% | 97.0271% and 91.1169% | 104.009% and 97.7327% | 131.649% and 89.49% | 142.608% and 94.0767%
18 | Cc1ccc(C(=O)Nc2cccc(C(F)(F)F)c2)cc1Nc1nc(-c2cccnc2)nc2c1cnn2C | 111.788% and 111.949% | 93.5249% and 94.6015% | 58.179% and 60.2091% | 55.1529% and 56.0201% | 119.681% and 88.2655% | 229.025% and 116.079%
19 | CN(C)C(=O)N1CC[C@H](NC2=Nc3cc(F)ccc3N(CC(F)F)c3ccc(Cl)cc32)C1 | 112.42% and 113.793% | 60.2365% and 60.6343% | 101.162% and 105.976% | 96.6139% and 109.943% | 91.7013% and 91.0686% | 138.489% and 113.836%
20 | CC(=O)C1=C(C)N(c2cccc(C(F)(F)F)c2)C(=O)N[C@H]1c1ccc(C#N)nc1 [BAY-677] | 100.678% and 123.419% | 118.859% and 107.077% | 113.516% and 88.4864% | 88.4804% and 82.1429% | 129.525% and 109.185% | 133.262% and 97.2618%
21 | O=C(O)c1ccc(-c2coc3ncc(-c4ccccc4)cc23)cc1Cl | 151.185% and 107.979% | 124.809% and 78.3539% | 190.076% and 113.91% | 188.696% and 75.9402% | 308.758% and 113.836% | 206.023% and 93.0484%
22 | CN(C)C/C=C/C(=O)Nc1cc2c(Nc3ccc(F)c(Cl)c3)ncnc2cc1O[C@H]1CCOC1.O=C(O)/C=C\C(=O)O.O=C(O)/C=C\C(=O)O [AFATINIB DIMALEATE] | 4.81% and 9.6592% | 4.363% and 10.2005% | 61.0357% and 82.5087% | 65.3803% and 88.665% | 8.847% and 13.6138% | 6.151% and 10.3121%
